From patent US20220168384A1, “Anti-Bacterial Combination Therapy” (McMaster University, priority 2019, published 2022)
“Also recorded” adds a separate entry of the source.

Experiments:
[1] = UV-Vis absorption spectra assay for iron chelation; assay type: physicochemical; settings: 300 μM compound and FeCl3; 300-700 nm; 1 h
Experimental: Equimolar concentrations of compound and FeCl3 were added in deionized H2O to a final concentration of 300 μM and a spectrum of wavelengths from 300 nm to 700 nm read after 1 h incubation at room temperature. The black dashed line is the spectrum of the compound in the absence of iron. The black solid line is the spectrum after the addition of iron. […] Chloramphenicol and ampicillin were used as negative controls. Each assay was performed at least 3 times and averaged values are shown.
Compounds were arrayed in Nunc 96 microwell plates. Vehicle controls contained Milli-Q H2O with 1:75 dilution of each compound at a final concentration of […]. The experimental set-up contained the same components as the vehicle control, with the addition of […] FeCl3. The final volume in each well was 150 μL. The plate was incubated at room temperature for one hour and absorption spectra from 300 nm to 700 nm was read in 2 nm increments (Multiskan Go—Thermo Fisher Scientific).

P. aeruginosa PAO1 = test: Checkerboard assays of TS with DFP, DSX or 10% serum; assay type: cell-based, Pseudomonas aeruginosa; settings: 10:90
Experimental: Human serum (Corning) and mouse serum (Equitech-Bio) were stored at −20° C. Sera were aliquoted into 5-ml culture tubes by thawing once at 37° C. for 30 min with occasional gentle mixing. Culture tubes were frozen at −20° C. until use. To make 10% serum solutions, serum was thawed for 10 min at 37° C. and then heat inactivated at 57° C. for 30 min. Two milliliters of heat-inactivated serum were added to 18 ml of 10:90 medium and gently mixed. This 10% serum solution was used for checkerboard assays.
(§1) Checkerboard assays were set-up using Nunc 96-well plates in an 8-well by 8-well format. Two columns were allocated for vehicle controls and two columns for sterility controls. Vehicle controls contained 2 μL DMSO plus 2 μL DFP solvent for checkerboards with TS and DFP or 4 μL DMSO for TS and DSX, in 146 μL of 10:90 medium or 10% serum inoculated with PA14 or PAO1-KP as described in Growth Curves. Sterile controls contained the same components in 10:90 medium or 10% serum, without cells. Serial dilutions of TS—with 17 μg/mL being the highest final concentration—were added along the y axis of the checkerboard (increasing concentration from bottom to top) whereas serial dilutions of DFP or DSX—with 512 μg/mL being the highest final concentration—were added along the x axis (increasing concentration from left to right). The final volume of each well was 150 μL and each checkerboard was repeated at least three times. Plates were incubated and the final OD600 determined as detailed above.

[2] = Qualitative assay for antibiotic-Fe3+ coloured complexes; assay type: physicochemical; settings: stock antibiotic + FeCl3 final 10 μM; room temperature 1 h
Experimental: […]. Binding of iron by a compound causes spectral shifts that can detected visually. Five μL of stock concentration antibiotic was added to 5 μL of FeCl3 to a final FeCl3 concentration of 10 μM and incubated at room temperature for one hour. Negative controls without iron are indicated by a negative sign and droplets with FeCl3 are indicated with a positive sign; vehicle controls with Milli-Q H2O and DMSO were included.
Compounds were arrayed in Nunc 96 microwell plates. Vehicle controls contained Milli-Q H2O with 1:75 dilution of each compound at a final concentration of […]. The experimental set-up contained the same components as the vehicle control, with the addition of […] FeCl3. The final volume in each well was 150 μL. The plate was incubated at room temperature for one hour and absorption spectra from 300 nm to 700 nm was read in 2 nm increments (Multiskan Go—Thermo Fisher Scientific). […]

[3] = Chrome azurol S (CAS) plate assay; assay type: physicochemical; settings: 10 μL of 2 mg/mL; room temperature 1 h
P. aeruginosa PA14 [4] = test: Dose response and checkerboard assays against PA14; assay type: cell-based, Pseudomonas aeruginosa; settings: PA14; for interaction with DSX: 2D checkerboard; for one-eighth of MIC against PA14 (test concentration): Pseudomonas aeruginosa, concentration used in clinical isolate testing, read-out: ⅛^th the MIC of PA14; for effect of 100 μM Fe^3+ on inhibitory activity: VAN + compound checkerboards; for synergy with TS: IC50 isobolograms, 10:90; for relative potency of synergy with TS: checkerboards, isobolograms and CI values
Experimental: as §1
Culture conditions, growth assays, dose response and checkerboard assays using P. aeruginosa PA14 were performed as described in Example 1. Briefly, overnight cultures were grown in LB for 16 h, 37° C., 200 rpm then subcultured (1:500 dilution) into 10:90 for 6 h. Subcultures were standardized to OD600 of 0.10 and diluted 1:500 in fresh 10:90 before use. For the dose response assay, serial dilutions of compounds were added at 75 times the final concentration and diluted with 10:90 with cells to reach the desired final concentration. This was done in triplicate for technical replicates. Vehicle and sterile controls were included. The checkerboard assay was done similarly to the dose response assay but in an 8×8 format in a 96-well Nunc plate, with concentration of one drug increasing along the y-axis and the other along the x-axis. Sterility and vehicle controls were included with two columns allocated for each control. At least three biological replicates were repeated for the dose response and checkerboard assays.

[5] = test system: P. aeruginosa clinical isolates; test: Clinical isolates testing, P. aeruginosa; assay type: cell-based, Pseudomonas aeruginosa
Experimental: (§2) Clinical isolates of P. aeruginosa and A. baumannii were inoculated from −80° C. stocks into 200 μL LB broth and grown with shaking at 200 rpm, 16 h, 37° C. in Nunc 96-well plates. The overnight cultures were subcultured (1:25 dilution) into 10:90 and grown with shaking at 200 rpm, 2 h, 37° C. Vehicle controls consisted of 4 μL of DMSO, 144 μL 10:90 and 2 μL of subculture. Sterile controls consisted of 4 μL of DMSO and 146 μL 10:90. […]. The final volume of each well was 150 μL and each checkerboard was repeated at least three times. Plates were incubated with shaking at 200 rpm, 16 h, 37° C. and OD600 was measured (Multiskan Go—Thermo Fisher Scientific). The results were plotted as percent of control (wells containing only DMSO) using Prism (GraphPad).
(§3) Clinical isolates were grown and tested as described in Example 1. Briefly, clinical isolates were inoculated from glycerol stocks stored at −80° C. into Nunc 96-well plates and grown overnight at 37° C., for 16 h with shaking in LB (200 rpm). Overnights were subcultured (1:25) into fresh 10:90 medium and grown for 2 h under the same growth conditions. Subcultures were diluted 1:75 in fresh 10:90. Compounds were diluted 1:75 to obtain the final concentration. DOXY and CLI were added at a final concentration of 1 μg/mL, CO was used at 2 μg/mL, TRO was used at 4 μg/mL, TS was used at 8.3 μg/mL, and DSX was used at 32 μg/mL. Vehicle and sterility controls were included. Plates were incubated overnight with the same conditions. The OD600 was read (Multiscan Go—Thermo Fisher Scientific), analyzed using Excel, and the data plotted using Prism (GraphPad).
(§4) Culture conditions, checkerboard assays using P. aeruginosa PA14 and dose-response assays were performed as described in Example 1. In addition to TS, other thiopeptides tested were siomycin A (SM), thiocillin I (TC), micrococcin P1 (MC), nosiheptide (NH), berninamycin A (BER), and geninthiocin A (GEN). For dose response assays of the combinations conducted in 10:90, DSX concentration was constant at 64 μg/mL.

P. aeruginosa PA14 [6] = test: Checkerboards pinned to LB agar (bactericidal activity); assay type: cell-based, Pseudomonas aeruginosa; settings: overnight 37° C.
Experimental: Checkerboards were pinned to LB agar plates using a sterile 96 pin tool. Plates were incubated overnight at 37° C. Independent experiments were conducted 3 times and a representative plate is shown.

[7] = test system: Acinetobacter baumannii clinical isolates; test: Clinical isolates testing, A. baumannii; assay type: cell-based; settings: 10:90
Experimental: as §2, §3, §4

[8] = aqueous media

| SMILES | absorption spectrum after addition of FeCl3 [1] | effect of chelator on TS activity (P. aeruginosa PAO1; checkerboard with TS) | activity of chelator on its own against P. aeruginosa (P. aeruginosa PAO1; checkerboard, up to 512 μg/ml) | colour change upon addition of FeCl3 [2] | decolourization of CAS agar (relative affinity for iron) [3] | interaction with DSX (P. aeruginosa PA14 [4]) | one-eighth of MIC against PA14 (test concentration) (P. aeruginosa PA14 [4]) | effect of 100 μM Fe^3+ on inhibitory activity (P. aeruginosa PA14 [4]) | synergy with TS (P. aeruginosa PA14 [4]; checkerboard) | interaction with GN (P. aeruginosa PA14 [4]; checkerboard) | relative potency of synergy with TS (P. aeruginosa PA14 [4]) | growth of C0379, triple combinations with TS+DSX at higher concentrations of the compound ([5]; TS 8.3 and DSX 32 μg/mL) | mode of activity of compound alone (P. aeruginosa PA14 [6]) | susceptibility of A. baumannii strain C0286 [7] | growth of C0379 with CLI at 8 μg/mL ([5]; TS 8.3 and DSX 32 μg/mL where combined) | concentrations at which the compound precipitated [8] |
| --- | --- | --- | --- | --- | --- | --- | --- | --- | --- | --- | --- | --- | --- | --- | --- | --- |
| Cc1c(O)c(=O)ccn1C [DFP, deferiprone] | shifted | potentiated TS activity | neither chelator had activity | dark red/violet | – | – | – | – | – | – | – | – | – | – | – | – |
| Cc1cc(C2CCCCC2)n(O)c(=O)c1 [CO, Ciclopirox Olamine] | showed shifts in their absorption spectra | – | – | – | greatest decolourization | indifferent | 2 µg/mL | abrogated | synergized | antagonism | most potent synergy; also recorded: greater synergy | could inhibit its growth | bacteriostatic | – | – | – |
| Oc1c(I)cc(Cl)c2cccnc12 [CLI, Clioquinol] | – | – | – | – | Decolourization was not observed | antagonism | 1 µg/mL | abrogated | synergized | – | most potent synergy | – | bacteriostatic | susceptible | did not reduce growth below MIC | above 8 μg/mL |
